From ChEMBL document CHEMBL3885861, “Open TG-GATES”

Species: Rattus norvegicus
Test: Open TG-GATES - Regimen: Daily Repeat
Type: toxicity, organism-based, Sprague-Dawley
Set-up: regimen Daily Repeat, gender Male, age 6 weeks
Settings: in vivo, po, 30 mg/kg, route gavage, dose level Low; for APTT / Bas / Eos / Fbg / Hb / Ht / Lym / MCH / MCHC / MCV / Mono / Neu / PT / Plat / RBC / Ret / WBC: tissue Blood; for KIDNEY_L / KIDNEY_R / KIDNEY_TOTAL: tissue Kidney; for LIVER: tissue Liver; for A/G / ALP / ALT / AST / BUN / CRE / Ca / Cl / DBIL / GLC / IP / K / LDH / Na / PL / RALB / TBIL / TC / TG / TP / gamma-GTP: tissue Plasma

Cc1cccc(Nc2ccccc2C(=O)O)c1C [MEFENAMIC ACID]
TERMINAL_BW (72 h, time 3 day): 232.8 g
APTT (72 h, time 3 day): 19.8 s
Bas (72 h, time 3 day): 0%
Eos (72 h, time 3 day): 1%
Fbg (72 h, time 3 day): 221.8 mg/dL
Hb (72 h, time 3 day): 13.4 g/dL
Ht (72 h, time 3 day): 38.3%
Lym (72 h, time 3 day): 79.6%
MCH (72 h, time 3 day): 21.4 pg
MCHC (72 h, time 3 day): 35%
MCV (72 h, time 3 day): 61.1 fL
Mono (72 h, time 3 day): 2.4%
Neu (72 h, time 3 day): 15.4%
PT (72 h, time 3 day): 11.9 s
Plat (72 h, time 3 day): 117.6 x10_4/uL
RBC (72 h, time 3 day): 627.4 x10_4/ul
Ret (72 h, time 3 day): 5.6%
WBC (72 h, time 3 day): 94.5 x10_2/uL
KIDNEY_L (72 h, time 3 day): 1 g
KIDNEY_R (72 h, time 3 day): 1 g
KIDNEY_TOTAL (72 h, time 3 day): 2 g
LIVER (72 h, time 3 day): 10.6 g
A/G (72 h, time 3 day): 1.6
ALP (72 h, time 3 day): 1154.4 IU/L
ALT (72 h, time 3 day): 36.2 IU/L
AST (72 h, time 3 day): 66.2 IU/L
BUN (72 h, time 3 day): 14.6 mg/dL
CRE (72 h, time 3 day): 0.4 mg/dL
Ca (72 h, time 3 day): 10.8 mg/dL
Cl (72 h, time 3 day): 102 meq/L
DBIL (72 h, time 3 day): 0.09 mg/dL
GLC (72 h, time 3 day): 190.6 mg/dL
IP (72 h, time 3 day): 7.8 mg/dL
K (72 h, time 3 day): 4.2 meq/L
LDH (72 h, time 3 day): 171.8 IU/L
Na (72 h, time 3 day): 140 meq/L
PL (72 h, time 3 day): 164.6 mg/dL
RALB (72 h, time 3 day): 3.5 g/dL
TBIL (72 h, time 3 day): 0.2 mg/dL
TC (72 h, time 3 day): 91 mg/dL
TG (72 h, time 3 day): 94.4 mg/dL
TP (72 h, time 3 day): 5.6 g/dL
gamma-GTP (72 h, time 3 day): 0.8 IU/L
TERMINAL_BW ([…], time 7 day): 268.5 g
TERMINAL_BW ([…], time 14 day): 312.8 g
TERMINAL_BW ([…], time 28 day): 397.4 g
APTT ([…], time 7 day): 19.2 s
Bas ([…], time 7 day): 0%
Eos ([…], time 7 day): 1.4%
Fbg ([…], time 7 day): 237 mg/dL
Hb ([…], time 7 day): 14 g/dL
Ht ([…], time 7 day): 39%
Lym ([…], time 7 day): 80.4%
MCH ([…], time 7 day): 22.2 pg
MCHC ([…], time 7 day): 35.8%
MCV ([…], time 7 day): 61.9 fL
Mono ([…], time 7 day): 2%
Neu ([…], time 7 day): 15%
PT ([…], time 7 day): 11.8 s
Plat ([…], time 7 day): 125.5 x10_4/uL
RBC ([…], time 7 day): 629.6 x10_4/ul
Ret ([…], time 7 day): 5.4%
WBC ([…], time 7 day): 98.6 x10_2/uL
APTT ([…], time 14 day): 19.6 s
Bas ([…], time 14 day): 0%
Eos ([…], time 14 day): 1%
Fbg ([…], time 14 day): 224.2 mg/dL
Hb ([…], time 14 day): 14.5 g/dL
Ht ([…], time 14 day): 40.6%
Lym ([…], time 14 day): 80%
MCH ([…], time 14 day): 21.5 pg
MCHC ([…], time 14 day): 35.7%
MCV ([…], time 14 day): 60.3 fL
Mono ([…], time 14 day): 2.4%
Neu ([…], time 14 day): 15.4%
PT ([…], time 14 day): 12.1 s
Plat ([…], time 14 day): 117 x10_4/uL
RBC ([…], time 14 day): 673.6 x10_4/ul
Ret ([…], time 14 day): 4%
WBC ([…], time 14 day): 93.1 x10_2/uL
APTT ([…], time 28 day): 18.7 s
Bas ([…], time 28 day): 0%
Eos ([…], time 28 day): 1.2%
Fbg ([…], time 28 day): 248.6 mg/dL
Hb ([…], time 28 day): 15.6 g/dL
Ht ([…], time 28 day): 43.9%
Lym ([…], time 28 day): 81.8%
MCH ([…], time 28 day): 20.4 pg
MCHC ([…], time 28 day): 35.5%
MCV ([…], time 28 day): 57.5 fL
Mono ([…], time 28 day): 2.2%
Neu ([…], time 28 day): 13%
PT ([…], time 28 day): 12.1 s
Plat ([…], time 28 day): 107.9 x10_4/uL
RBC ([…], time 28 day): 764.2 x10_4/ul
Ret ([…], time 28 day): 2.5%
WBC ([…], time 28 day): 93.1 x10_2/uL
KIDNEY_L ([…], time 7 day): 1.1 g
KIDNEY_R ([…], time 7 day): 1.1 g
KIDNEY_TOTAL ([…], time 7 day): 2.2 g
KIDNEY_L ([…], time 14 day): 1.2 g
KIDNEY_R ([…], time 14 day): 1.2 g
KIDNEY_TOTAL ([…], time 14 day): 2.4 g
KIDNEY_L ([…], time 28 day): 1.4 g
KIDNEY_R ([…], time 28 day): 1.4 g
KIDNEY_TOTAL ([…], time 28 day): 2.8 g
LIVER ([…], time 7 day): 12.3 g
LIVER ([…], time 14 day): 13.7 g
LIVER ([…], time 28 day): 16.1 g
A/G ([…], time 7 day): 1.6
ALP ([…], time 7 day): 1054 IU/L
ALT ([…], time 7 day): 38.2 IU/L
AST ([…], time 7 day): 69.8 IU/L
BUN ([…], time 7 day): 15 mg/dL
CRE ([…], time 7 day): 0.4 mg/dL
Ca ([…], time 7 day): 10.6 mg/dL
Cl ([…], time 7 day): 102.8 meq/L
DBIL ([…], time 7 day): 0.098 mg/dL
GLC ([…], time 7 day): 222.6 mg/dL
IP ([…], time 7 day): 7.2 mg/dL
K ([…], time 7 day): 3.7 meq/L
LDH ([…], time 7 day): 204.4 IU/L
Na ([…], time 7 day): 140.2 meq/L
PL ([…], time 7 day): 152.4 mg/dL
RALB ([…], time 7 day): 3.5 g/dL
TBIL ([…], time 7 day): 0.2 mg/dL
TC ([…], time 7 day): 75.8 mg/dL
TG ([…], time 7 day): 114.2 mg/dL
TP ([…], time 7 day): 5.7 g/dL
gamma-GTP ([…], time 7 day): 0.8 IU/L
A/G ([…], time 14 day): 1.4
ALP ([…], time 14 day): 881.8 IU/L
ALT ([…], time 14 day): 33.4 IU/L
AST ([…], time 14 day): 57.8 IU/L
BUN ([…], time 14 day): 16 mg/dL
CRE ([…], time 14 day): 0.4 mg/dL
Ca ([…], time 14 day): 10.6 mg/dL
Cl ([…], time 14 day): 103.4 meq/L
DBIL ([…], time 14 day): 0.098 mg/dL
GLC ([…], time 14 day): 205.2 mg/dL
IP ([…], time 14 day): 7.1 mg/dL
K ([…], time 14 day): 3.9 meq/L
LDH ([…], time 14 day): 152.4 IU/L
Na ([…], time 14 day): 140.8 meq/L
PL ([…], time 14 day): 151.4 mg/dL
RALB ([…], time 14 day): 3.3 g/dL
TBIL ([…], time 14 day): 0.2 mg/dL
TC ([…], time 14 day): 74.4 mg/dL
TG ([…], time 14 day): 125 mg/dL
TP ([…], time 14 day): 5.7 g/dL
gamma-GTP ([…], time 14 day): 1 IU/L
A/G ([…], time 28 day): 1.4
ALP ([…], time 28 day): 696 IU/L
ALT ([…], time 28 day): 32.8 IU/L
AST ([…], time 28 day): 57.8 IU/L
BUN ([…], time 28 day): 17.8 mg/dL
CRE ([…], time 28 day): 0.5 mg/dL
Ca ([…], time 28 day): 10.5 mg/dL
Cl ([…], time 28 day): 103.8 meq/L
DBIL ([…], time 28 day): 0.082 mg/dL
GLC ([…], time 28 day): 227 mg/dL
IP ([…], time 28 day): 6.6 mg/dL
K ([…], time 28 day): 3.5 meq/L
LDH ([…], time 28 day): 103.4 IU/L
Na ([…], time 28 day): 141.2 meq/L
PL ([…], time 28 day): 146.2 mg/dL
RALB ([…], time 28 day): 3.5 g/dL
TBIL ([…], time 28 day): 0.1 mg/dL
TC ([…], time 28 day): 78.2 mg/dL
TG ([…], time 28 day): 97 mg/dL
TP ([…], time 28 day): 6.1 g/dL
gamma-GTP ([…], time 28 day): 1.2 IU/L
